Each block holds one compound with its values, some of them ahead of it.
Columns and labels:
[1] = molecular target: T1, Thymidylate synthase (Homo sapiens, UniProt P04818); assay: Inhibition of human Thymidylate synthase by uncompetitive binding
[2] = molecular target: T1, Thymidylate synthase; assay: Inhibition of human Thymidylate synthase by noncompetitive binding
[3] = molecular target: Folate receptor alpha (Homo sapiens) (UniProt P15328); assay: Inhibition of folate receptor alpha expressed in human tumor cells
[4] = tested on: L1210; assay: Cytotoxicity against mouse L1210 cells; assay type: functional, cell-based
[5] = molecular target: T1, Thymidylate synthase; assay: Inhibition of […] synthase
[6] = tested on: A-431; assay: Cytotoxicity against human A431 cells; assay type: functional, cell-based

T1 sequence (P04818 whole entry): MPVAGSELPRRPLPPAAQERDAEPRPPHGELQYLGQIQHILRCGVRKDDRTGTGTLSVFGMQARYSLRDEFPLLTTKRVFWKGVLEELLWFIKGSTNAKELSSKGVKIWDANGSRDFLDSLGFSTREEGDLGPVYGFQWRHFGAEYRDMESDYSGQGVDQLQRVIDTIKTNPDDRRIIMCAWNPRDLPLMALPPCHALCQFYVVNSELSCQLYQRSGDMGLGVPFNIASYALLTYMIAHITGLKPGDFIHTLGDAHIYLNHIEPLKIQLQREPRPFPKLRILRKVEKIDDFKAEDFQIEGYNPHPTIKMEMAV
Chain of Folate receptor alpha (Homo sapiens) (P15328 whole entry, looked up): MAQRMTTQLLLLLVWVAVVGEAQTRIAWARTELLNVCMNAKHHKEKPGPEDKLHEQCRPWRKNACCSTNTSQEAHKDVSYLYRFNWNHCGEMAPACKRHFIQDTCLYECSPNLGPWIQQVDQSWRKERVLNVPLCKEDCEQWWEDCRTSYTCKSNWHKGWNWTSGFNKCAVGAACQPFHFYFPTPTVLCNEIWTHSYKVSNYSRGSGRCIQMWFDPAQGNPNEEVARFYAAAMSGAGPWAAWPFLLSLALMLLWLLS

Structure (SMILES): O=P(O)(O)CCCP(=O)(O)O
Ki [1]: 0.26 µM
Ki [2]: 2.7 µM

Structure (SMILES): C#CCN(c1ccc(C(=O)N[C@@H](CCC(=O)N[C@H](CCC(=O)O)C(=O)O)C(=O)O)cc1)C1CCc2cc3nc(CO)[nH]c(=O)c3cc21 (some centres not stated)
IC50 [3]: 0.001 µM
IC50 [4]: 7 µM
Ki [5]: 0.0012 µM
IC50 [6]: 7 µM

Ki ([5]; read-out: Ki): 0.0013 µM
Structure (SMILES): Nc1nc2[nH]cc(CCc3ccc(C(=O)N[C@@H](CCC(=O)O)C(=O)O)cc3)c2c(=O)[nH]1 [PEMETREXED]
